Consider 57 molecules from patent US9902728B2, “Pyrrolo and pyrazolopyrimidines as ubiquitin-specific protease 7 inhibitors” (Forma Therapeutics, Inc., priority 2014, dated 2018).

Bounds are passed on as bounds.

The target in the experiment is T1, USP7 (Homo sapiens, UniProt Q93009).
T1 construct: USP7, construct USP7 (208-1102) 6*His, Viva Biotech; 6xHis (C); purchased Viva Biotech
T1 sequence (Q93009 208-1102): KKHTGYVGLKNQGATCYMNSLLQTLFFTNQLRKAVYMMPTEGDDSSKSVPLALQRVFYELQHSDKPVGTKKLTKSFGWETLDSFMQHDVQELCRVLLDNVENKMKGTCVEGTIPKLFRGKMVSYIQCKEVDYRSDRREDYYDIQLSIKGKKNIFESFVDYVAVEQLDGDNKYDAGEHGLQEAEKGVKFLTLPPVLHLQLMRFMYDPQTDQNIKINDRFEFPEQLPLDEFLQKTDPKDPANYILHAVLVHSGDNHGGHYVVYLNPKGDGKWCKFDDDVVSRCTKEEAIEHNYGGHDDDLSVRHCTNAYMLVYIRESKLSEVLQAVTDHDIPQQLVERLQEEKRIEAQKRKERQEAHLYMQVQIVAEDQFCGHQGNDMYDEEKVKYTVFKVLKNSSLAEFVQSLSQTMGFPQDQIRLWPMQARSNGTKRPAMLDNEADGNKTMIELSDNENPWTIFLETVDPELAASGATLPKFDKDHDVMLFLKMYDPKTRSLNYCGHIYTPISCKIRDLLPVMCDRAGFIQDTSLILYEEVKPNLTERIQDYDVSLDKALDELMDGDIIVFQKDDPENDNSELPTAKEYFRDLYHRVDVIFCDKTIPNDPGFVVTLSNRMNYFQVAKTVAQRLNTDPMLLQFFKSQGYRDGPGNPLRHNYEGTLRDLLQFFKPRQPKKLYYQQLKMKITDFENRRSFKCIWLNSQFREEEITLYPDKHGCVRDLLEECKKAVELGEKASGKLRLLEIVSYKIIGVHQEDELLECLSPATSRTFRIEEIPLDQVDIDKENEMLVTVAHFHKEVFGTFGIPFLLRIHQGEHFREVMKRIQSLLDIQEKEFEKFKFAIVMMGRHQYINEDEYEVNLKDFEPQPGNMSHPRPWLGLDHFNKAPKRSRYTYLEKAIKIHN
Kind of experiment: USP7 Assay A (Ubitquin-Rhodamine 110 Assay). The format is biochemical. The conditions noted are these: USP7 assay A and B (table does not say which assay per compound); read-out: USP7_IC50. On the procedure:
Each assay was performed in a final volume of 15 μL in assay buffer containing 20 mM Tris-HCl (pH 8.0, (1M Tris-HCl, pH 8.0 solution; Corning 46-031-CM)), 1 mM GSH (L-Glutathione reduced; Sigma #G4251), 0.03% BGG ([…], Sigma, #G7516-25G), and 0.01% Triton X-100 (Sigma, #T9284-10L). […] 5 μL of 2× enzyme was added to assay plates (pre-stamped with compound) preincubated with USP7 for 30 minutes and then 5 μL of 2×Ub-Rh110 was added to assay plates. […] Fluorescence was read on the Envision (Excitation at 485 nm and Emission at 535 nm; Perkin Elmer) or on the PheraSTAR (Excitation at 485 nm and Emission at 535 nm; BMG Labtech).
Data from USP7 Assays A and B were reported as percent inhibition (inh) compared with control wells based on the following equation: % inh=1−((FLU−AveLow)/(AveHigh−AveLow)) where FLU=measured Fluorescence (See Tables 6-10). AveLow=average Fluorescence of no enzyme control (n=16). AveHigh=average Fluorescence of DMSO control (n=16). […] Data is fitted using the Levenburg Marquardt algorithm.
For `Cc1ccc(C(=O)N2CCC(O)(Cn3cnc4c(cnn4-c4ccccc4)c3=O)CC2)cc1Cl` [Compound I-211], the IC50 was in the range of 200 to 1000 nM.
As for `Cc1cc(C(=O)N2CCC(O)(Cn3cnc4c(cnn4-c4ccccc4)c3=O)CC2)ccc1Cl` [Compound I-212], the figure is 200 to 1000 nM; as for `O=C(c1ccc(Cl)c(Cl)c1)N1CCC(O)(Cn2cnc3c(cnn3-c3ccccc3)c2=O)CC1` [Compound I-213], 1000 to 10000 nM.
With `COc1ccc(C(=O)N2CCC(O)(Cn3cnc4c(cnn4-c4ccccc4)c3=O)CC2)cc1Cl` [Compound I-214], the IC50 lay in the range of 200 to 1000 nM.
As for `COc1ccc(Cl)cc1C(=O)N1CCC(O)(Cn2cnc3c(cnn3-c3ccccc3)c2=O)CC1` [Compound I-218], the figure is 1000 to 10000 nM.
As for `COc1ccc(OC)c(C(=O)N2CCC(O)(Cn3cnc4c(cnn4-c4ccccc4)c3=O)CC2)c1` [Compound I-221], the figure is 1000 to 10000 nM; as for `O=C(c1cc(Cl)ccc1Cl)N1CCC(O)(Cn2cnc3c(cnn3-c3ccccc3)c2=O)CC1` [Compound I-223], 200 to 1000 nM; as for `O=C(c1ccc(Cl)cc1Cl)N1CCC(O)(Cn2cnc3c(cnn3-c3ccccc3)c2=O)CC1` [Compound I-224], 200 to 1000 nM.
As for `COc1cc(C(=O)N2CCC(O)(Cn3cnc4c(cnn4-c4ccccc4)c3=O)CC2)ccc1Cl` [Compound I-226], the figure is 1000 to 10000 nM; as for `Cc1cnc(C(=O)N2CCC(O)(Cn3cnc4c(cnn4-c4ccccc4)c3=O)CC2)cn1` [Compound I-227], > 10000 nM; as for `Cc1cc(C(=O)N2CCC(O)(Cn3cnc4c(cnn4-c4ccccc4)c3=O)CC2)nn1C` [Compound I-229], 1000 to 10000 nM.
`Cc1nc(C)c(C(=O)N2CCC(O)(Cn3cnc4c(cnn4-c4ccccc4)c3=O)CC2)s1` [Compound I-230]: the IC50 fell in the range of 1000 to 10000 nM.
As for `Nc1cc(Cl)ccc1C(=O)N1CCC(O)(Cn2cnc3c(cnn3-c3ccccc3)c2=O)CC1` [Compound I-232], the figure is 200 to 1000 nM.
As for `Nc1ccc(Cl)cc1C(=O)N1CCC(O)(Cn2cnc3c(cnn3-c3ccccc3)c2=O)CC1` [Compound I-233], the figure is 200 to 1000 nM; as for `O=C(c1cnc(-c2ccccc2)o1)N1CCC(O)(Cn2cnc3c(cnn3-c3ccccc3)c2=O)CC1` [Compound I-252], 200 to 1000 nM; as for `C#CC(=O)NC1CC(C(=O)N2CCC(O)(Cn3cnc4c(cnn4-c4ccccc4)c3=O)CC2)C1` (stereo not drawn) [Compound I-259], 1000 to 10000 nM.
Next, `O=C(C1CC1)N1CCC(O)(Cn2cnc3c(cnn3-c3ccc(Cl)cc3Cl)c2=O)CC1` [Compound I-264]: > 10000 nM; `O=C(c1ccccc1)N1CCC(O)(Cn2cnc3c(cnn3-c3ccc(F)cc3)c2=O)CC1` [Compound I-266]: 1000 to 10000 nM; `COc1ccc(C(=O)N2CCC(O)(Cn3cnc4c(cnn4-c4ccc(F)cc4)c3=O)CC2)cc1` [Compound I-267]: 200 to 1000 nM.
`O=C(c1ccc(F)cc1)N1CCC(O)(Cn2cnc3c(cnn3-c3ccc(F)cc3)c2=O)CC1` [Compound I-268]: the IC50 lay within 1000 to 10000 nM.
As for `CC1(C(=O)N2CCC(O)(Cn3cnc4c(cnn4-c4ccccc4)c3=O)CC2)CC1` [Compound I-271], the figure is 1000 to 10000 nM; as for `O=C(O)c1ccc(C(=O)N2CCC(O)(Cn3cnc4c(cnn4-c4ccccc4)c3=O)CC2)cc1` [Compound I-272], 1000 to 10000 nM.
As to `O=C(c1ccc(OC(F)F)cc1)N1CCC(O)(Cn2cnc3c(cnn3-c3ccccc3)c2=O)CC1` [Compound I-274], the IC50 fell in the range of 1000 to 10000 nM.
As for `O=C(C1CC1)N1CCC(O)(Cn2cnc3c(cnn3-c3ccc(-c4ccccc4)cc3)c2=O)CC1` [Compound I-276], the figure is 1000 to 10000 nM.
Next, `O=C(N1CCC(O)(Cn2cnc3c(cnn3-c3ccccc3)c2=O)CC1)C1(C(F)(F)F)CC1` [Compound I-277]: 1000 to 10000 nM.
`CN(C)C(=O)N1CCC(O)(Cn2cnc3c(cnn3-c3ccc(F)cc3)c2=O)CC1` [Compound I-279]: the IC50 fell in the range of 1000 to 10000 nM.
Next, `O=C(c1ccc(Cl)cc1)N1CCC(O)(Cn2cnc3c(cnn3-c3ccccc3)c2=O)CC1` [Compound I-280]: 1000 to 10000 nM.
As for `O=C(c1ccccc1)N1CCC(O)(Cn2cnc3c(cnn3-c3cccc(CO)c3)c2=O)CC1` [Compound I-281], the figure is 1000 to 10000 nM; as for `O=C(c1ccc2c(Cl)ccnc2c1)N1CCC(O)(Cn2cnc3c(cnn3-c3ccccc3)c2=O)CC1` [Compound I-282], 1000 to 10000 nM.
Regarding `O=C(c1ccc(OC2CC2)cc1)N1CCC(O)(Cn2cnc3c(cnn3-c3ccc(F)cc3)c2=O)CC1` [Compound I-283], the IC50 was in the range of 1000 to 10000 nM.
Next, `CNC(=O)N1CCC(O)(Cn2cnc3c(cnn3-c3ccc(F)cc3)c2=O)CC1` [Compound I-284, 4-{[1-(4-fluorophenyl)-4-oxo-1H,4H,5H-pyrazolo[3,4-d]pyrimidin-5-yl]methyl}-4-hydroxy-N-methylpiperidine-1-carboxamide]: 1000 to 10000 nM.
As for `O=C(c1ccnc(Cl)c1)N1CCC(O)(Cn2cnc3c(cnn3-c3ccccc3)c2=O)CC1` [Compound I-287], the figure is 1000 to 10000 nM; as for `O=C(N1CCC(O)(Cn2cnc3c(cnn3-c3ccccc3)c2=O)CC1)C12CC(C1)C2` [Compound I-289], 200 to 1000 nM.
As for `O=C(N1CCC(O)(Cn2cnc3c(cnn3-c3ccccc3)c2=O)CC1)C12CC(C(F)(F)F)(C1)C2` [Compound I-290], the figure is 1000 to 10000 nM.
With `CC(O)(c1ccc(C(=O)N2CCC(O)(Cn3cnc4c(cnn4-c4ccccc4)c3=O)CC2)cc1)C(F)(F)F` (stereo not drawn) [Compound I-291], the IC50 fell in the range of 1000 to 10000 nM.
As for `CC(F)(F)c1ccc(C(=O)N2CCC(O)(Cn3cnc4c(cnn4-c4ccccc4)c3=O)CC2)cc1` [Compound I-294], the figure is 1000 to 10000 nM; as for `O=C(C1CC1)N1CCC(O)(Cn2cnc3c(cnn3-c3ccc(Oc4ccccc4)cc3)c2=O)CC1` [Compound I-296], 1000 to 10000 nM; as for `O=C(c1ccc(Cl)cc1)N1CCC(O)(Cn2cnc3c(cnn3-c3ccc(F)cc3)c2=O)CC1` [Compound I-302, 5-{[1-(4-chlorobenzoyl)-4-hydroxypiperidin-4-yl]methyl}-1-(4-fluorophenyl)-1H,4H,5H-pyrazolo[3,4-d]pyrimidin-4-one], 200 to 1000 nM.
As for `O=C(c1cccc(Cl)c1)N1CCC(O)(Cn2cnc3c(cnn3-c3ccc(F)cc3)c2=O)CC1` [Compound I-303], the figure is 1000 to 10000 nM; as for `O=C(c1ccc(C2CC2)cc1)N1CCC(O)(Cn2cnc3c(cnn3-c3ccc(F)cc3)c2=O)CC1` [Compound I-304], 1000 to 10000 nM.
With `O=C(c1ccc(OC(F)F)cc1)N1CCC(O)(Cn2cnc3c(cnn3-c3ccc(F)cc3)c2=O)CC1` [Compound I-306], the IC50 is 1000 to 10000 nM.
Regarding `O=C(c1ccc(F)c(F)c1)N1CCC(O)(Cn2cnc3c(cnn3-c3ccc(F)cc3)c2=O)CC1` [Compound I-309], the IC50 lay within 1000 to 10000 nM.
As for `Cc1ncoc1C(=O)N1CCC(O)(Cn2cnc3c(cnn3-c3ccc(F)cc3)c2=O)CC1` [Compound I-312], the figure is 1000 to 10000 nM.
Next, `O=C(c1cnc(C2CC2)o1)N1CCC(O)(Cn2cnc3c(cnn3-c3ccc(F)cc3)c2=O)CC1` [Compound I-314]: 200 to 1000 nM; `CN(C)c1ncc(C(=O)N2CCC(O)(Cn3cnc4c(cnn4-c4ccc(F)cc4)c3=O)CC2)o1` [Compound I-315]: 1000 to 10000 nM; `O=C(c1ccc(Cl)cc1Cl)N1CCC(O)(Cn2cnc3c(cnn3-c3ccc(F)cc3)c2=O)CC1` [Compound I-317]: 200 to 1000 nM.
As for `O=C(C1CC1)N1CCC(O)(Cn2cnc3c(cnn3-c3ccc(-c4cccc(F)c4)cc3)c2=O)CC1` [Compound I-330], the figure is 1000 to 10000 nM; as for `O=C(c1ccc(-c2ccc(-n3ncc4c(=O)n(CC5(O)CCN(C(=O)C6CC6)CC5)cnc43)cc2)cc1)N1CCCC1` [Compound I-333], 1000 to 10000 nM.
In the case of `O=C(C1CC1)N1CCC(O)(Cn2cnc3c(cnn3-c3cccc(-c4cccc(Cl)c4)c3)c2=O)CC1` [Compound I-347], the IC50 is 1000 to 10000 nM.
With `CN(C)C(=O)c1ccc(-c2cccc(-n3ncc4c(=O)n(CC5(O)CCN(C(=O)C6CC6)CC5)cnc43)c2)cc1` [Compound I-350], the IC50 is 1000 to 10000 nM.
Consider `N#Cc1cccc(-c2cccc(-n3ncc4c(=O)n(CC5(O)CCN(C(=O)C6CC6)CC5)cnc43)c2)c1` [Compound I-359], for which the IC50 was 1000 to 10000 nM.
As for `CN(C)CCOc1ccc(-c2ccc(-n3ncc4c(=O)n(CC5(O)CCN(C(=O)C6CC6)CC5)cnc43)cc2)cc1` [Compound I-369], the figure is 1000 to 10000 nM.
Next, `O=C(C1CC1)N1CCC(O)(Cn2cnc3c(cnn3-c3cccc(-c4cccc(O)c4)c3)c2=O)CC1` [Compound I-385]: 1000 to 10000 nM; `O=C(C1CC1)N1CCC(O)(Cn2cnc3c(cnn3-c3cccc(-c4cncc(F)c4)c3)c2=O)CC1` [Compound I-387]: 1000 to 10000 nM; `O=C(C1CC1)N1CCC(O)(Cn2cnc3c(cnn3-c3ccc(-c4cc(F)ccc4CO)cc3)c2=O)CC1` [Compound I-390]: 1000 to 10000 nM.
Next, `O=C(C1CC1)N1CCC(O)(Cn2cnc3c(cnn3-c3ccc(-c4cccc(N5CCCC5)c4)cc3)c2=O)CC1` [Compound I-399]: 1000 to 10000 nM; `O=C(C1CC1)N1CCC(O)(Cn2cnc3c(cnn3-c3cccc(-c4cc(F)ccc4CO)c3)c2=O)CC1` [Compound I-403]: 1000 to 10000 nM.
